“And” between values parts separate entries of the source, which are not always exact repeats. Equal entries are not always repeated.
Tested on: BDF1 mice, Adenocarcinoma 755 s.c., tumor weight T/C
Assay: NCI In Vivo Anticancer Drug Screen. Data for tumor model Adenocarcinoma 755 (subcutaneous) in B6D2F1 (BDF1) mice
Settings: endpoint: mean tumor weight, schedule: Q01DX011 (ip), higher = larger tumour
How it was run: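 Tumor-bearing mice receive test compound while controls get vehicle alone. Antitumor effect is scored from survival or tumor dimensions as a T/C quotient.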

## CN(C)C1C(=O)C(C(N)=O)=C(O)C2(O)C(=O)C3=C(O)c4c(O)cccc4C(C)(O)C3C(O)C12 (stereo not given)
dose: 19.5 mg/kg/injection, vehicle: carboxymethylcellulose (CMC)
  T/C: 78 % of control
dose: 19.86 mg/kg/injection, vehicle: carboxymethylcellulose (CMC)
  T/C: 106 % of control
dose: 31.25 mg/kg/injection, vehicle: methylcellulose (MC)
  T/C: 117 % of control
dose: 39.0 mg/kg/injection, vehicle: carboxymethylcellulose (CMC)
  T/C: 91 % of control
dose: 50.0 mg/kg/injection, vehicle: water
  T/C: 81 % of control
dose: 62.4 mg/kg/injection, vehicle: carboxymethylcellulose (CMC)
  T/C: 46 % of control
dose: 62.5 mg/kg/injection, vehicle: methylcellulose (MC)
  T/C: 69 % of control
dose: 63.56 mg/kg/injection, vehicle: carboxymethylcellulose (CMC)
  T/C: 119 % of control
dose: 78.0 mg/kg/injection, vehicle: carboxymethylcellulose (CMC)
  T/C: 95 % of control and 110 % of control
dose: 79.45 mg/kg/injection, vehicle: carboxymethylcellulose (CMC)
  T/C: 92 % of control and 75 % of control and 87 % of control
dose: 100.0 mg/kg/injection, vehicle: water
  T/C: 45 % of control
dose: 104.0 mg/kg/injection, vehicle: carboxymethylcellulose (CMC)
  T/C: 65 % of control
dose: 105.93 mg/kg/injection, vehicle: carboxymethylcellulose (CMC)
  T/C: 96 % of control and 87 % of control
dose: 125.0 mg/kg/injection, vehicle: methylcellulose (MC)
  T/C: 73 % of control
dose: 150.0 mg/kg/injection, vehicle: water
  T/C: 14 % of control

## [OH-].[OH-].[Pd+2].c1ccc(CSc2ncnc3nc[nH]c23)cc1.c1ccc(CSc2ncnc3nc[nH]c23)cc1.c1ccc(CSc2ncnc3nc[nH]c23)cc1.c1ccc(CSc2ncnc3nc[nH]c23)cc1
dose: 3.0 mg/kg/injection, vehicle: saline
  T/C: 76 % of control
dose: 6.0 mg/kg/injection, vehicle: saline
  T/C: 36 % of control
dose: 12.0 mg/kg/injection, vehicle: saline
  T/C: 17 % of control
dose: 12.5 mg/kg/injection, vehicle: saline
  T/C: 16 % of control
dose: 25.0 mg/kg/injection, vehicle: saline
  T/C: 1 % of control
dose: 50.0 mg/kg/injection, vehicle: saline
  T/C: 1 % of control
dose: 100.0 mg/kg/injection, vehicle: saline
  T/C: 1 % of control
dose: 200.0 mg/kg/injection, vehicle: saline
  T/C: 1 % of control

## COc1cc2c(cc1I)-c1c(cc(OC)c(OC)c1OC)CC[C@@H]2NC(C)=O
dose: 27.5 mg/kg/injection, vehicle: carboxymethylcellulose (CMC)
  T/C: 98 % of control
dose: 27.5 mg/kg/injection, vehicle: saline
  T/C: 106 % of control
dose: 55.0 mg/kg/injection, vehicle: carboxymethylcellulose (CMC)
  T/C: 81 % of control
dose: 55.0 mg/kg/injection, vehicle: saline
  T/C: 86 % of control
dose: 110.0 mg/kg/injection, vehicle: carboxymethylcellulose (CMC)
  T/C: 40 % of control
dose: 110.0 mg/kg/injection, vehicle: saline
  T/C: 58 % of control
dose: 220.0 mg/kg/injection, vehicle: saline
  T/C: 16 % of control

## O=CCC(O)C(O)C(O)CO (stereo not given)
dose: 125.0 mg/kg/injection, vehicle: carboxymethylcellulose (CMC)
  T/C: 106 % of control and 122 % of control

## Nc1nc(Cl)nc2c1ncn2C1OC(CO)C(O)C1O (stereo not given)
dose: 0.05 mg/kg/injection, vehicle: methylcellulose (MC)
  T/C: 59 % of control
dose: 0.1 mg/kg/injection, vehicle: methylcellulose (MC)
  T/C: 84 % of control
dose: 0.2 mg/kg/injection, vehicle: methylcellulose (MC)
  T/C: 48 % of control

## NC(=S)n1cccn1
dose: 20.0 mg/kg/injection, vehicle: methylcellulose (MC)
  T/C: 91 % of control
dose: 40.0 mg/kg/injection, vehicle: methylcellulose (MC)
  T/C: 85 % of control
dose: 80.0 mg/kg/injection, vehicle: methylcellulose (MC)
  T/C: 44 % of control
dose: 160.0 mg/kg/injection, vehicle: methylcellulose (MC)
  T/C: 8 % of control

## Cn1cnc([N+](=O)[O-])c1Sc1nc(N)nc2c1ncn2C1OC(CO)C(O)C1O (stereo not given)
dose: 0.03 mg/kg/injection, vehicle: methylcellulose (MC)
  T/C: 89 % of control
dose: 0.06 mg/kg/injection, vehicle: methylcellulose (MC)
  T/C: 76 % of control
dose: 0.11 mg/kg/injection, vehicle: methylcellulose (MC)
  T/C: 14 % of control
dose: 0.22 mg/kg/injection, vehicle: methylcellulose (MC)
  T/C: 1 % of control and 2 % of control
dose: 0.44 mg/kg/injection, vehicle: methylcellulose (MC)
  T/C: 2 % of control
dose: 0.88 mg/kg/injection, vehicle: methylcellulose (MC)
  T/C: 1 % of control
dose: 1.75 mg/kg/injection, vehicle: methylcellulose (MC)
  T/C: 2 % of control
